In one data set the test system is Human alphaherpesvirus 1. As to the kind of experiment: Antiviral activity against HSV1 in Vero SC16 cells by capture hybrid method. The following applies: Human alphaherpesvirus 1, Vero. Format: functional, organism-based.
What is called EC50 is the concentration that produces a half-maximal response. `Nc1nc(-c2c(-c3ccc(F)cc3)nn3c(NC4CCCC4)cccc23)cs1` registered an EC50 of 8.6 µM. On the same count and under the same terms, for `Fc1ccc(-c2nn3c(NC4CCCC4)cccc3c2-c2ccsc2)cc1` the value was more than 10 µM; for `NNc1cc(-c2c(-c3ccc(F)cc3)nn3c(NC4CCCC4)cccc23)ccn1`, 5.7 µM; for `Nc1nc(-c2c(-c3ccc(F)cc3)nn3c(NC4CCCC4)cccc23)c[nH]1`, more than 10 µM. On to `[N-]=[N+]=Nc1cc(-c2c(-c3ccc(F)cc3)nn3c(NC4CCCC4)cccc23)ccn1`, for which the EC50 is more than 40 µM. Molecule `Fc1ccc(-c2nn3c(NC4CCCC4)cccc3c2-c2c[nH]c(NC3CCCC3)n2)cc1` returned an EC50 of 7.9 µM. In other words, the single-digit micromolar range. The same measure, in the same setting: for `Nc1n[nH]cc1-c1c(-c2ccc(F)cc2)nn2c(NC3CCCC3)cccc12` the value was 4.9 µM; for `Fc1ccc(-c2nn3c(NC4CCCC4)cccc3c2-c2ccc3[nH]ccc3c2)cc1`, 3.9 µM. On the same count and under the same terms, the result for `Fc1ccc(-c2nn3c(NC4CCCC4)cccc3c2-c2ccc(NC3CCCC3)nc2)cc1` reads more than 40 µM. On the same count and under the same terms, the result for `Fc1ccc(-c2nn3c(NC4CCCC4)cccc3c2-c2cc(NC3CCCC3)ncn2)cc1` reads 0.85 µM; that for `Fc1ccc(-c2nn3c(NC4CCCC4)cccc3c2-c2cccnc2)cc1`, 3.4 µM; that for `Fc1ccc(-c2nn3c(NC4CCCC4)cccc3c2-c2ccnc(NC3CCCC3)n2)cc1`, 0.26 µM. Regarding `Fc1ccc(-c2nn3c(NC4CCCC4)cccc3c2-c2ccc(F)nc2)cc1`, the EC50 was more than 40 µM.

As to `Fc1ccc(-c2nn3c(NC4CCCC4)cccc3c2-c2cccnc2NC2CCCC2)cc1`, the EC50 was more than 40 µM. Same read-out and setting: the result for `Fc1ccc(-c2nn3c(NC4CCCC4)cccc3c2-c2cn[nH]c2)cc1` reads 4.7 µM; that for `Nc1cccc(-c2c(-c3ccc(F)cc3)nn3c(NC4CCCC4)cccc23)c1`, more than 10 µM.

With `Fc1ccc(-c2nn3c(NC4CCCC4)cccc3c2-c2ccnc(F)c2)cc1`, the EC50 was more than 40 µM. As to `Fc1ccc(-c2nn3c(NC4CCCC4)cccc3c2-c2ccno2)cc1`, the EC50 was more than 10 µM. Still for that read-out and setting: for `Fc1ccc(-c2nn3c(NC4CCCC4)cccc3c2-c2cc[nH]n2)cc1` the value was 2.5 µM. Same read-out and setting: the result for `Cc1nc(-c2c(-c3ccc(F)cc3)nn3c(NC4CCCC4)cccc23)co1` reads more than 40 µM. As to `Fc1ccc(-c2nn3c(NC4CCCC4)cccc3c2-c2ccoc2)cc1`, the EC50 was more than 10 µM. `Fc1ccc(-c2nn3c(NC4CCCC4)cccc3c2-c2ccco2)cc1` displayed an EC50 of more than 10 µM. On the same count and under the same terms, the result for `Nc1nccc(-c2c(-c3ccc(F)cc3)nn3c(NC4CCCC4)cccc23)n1` reads 4.1 µM; that for `Fc1ccc(-c2nn3c(NC4CCCC4)cccc3c2-c2ccnnc2)cc1`, more than 10 µM; that for `Fc1ccc(-c2nn3c(NC4CCCC4)cccc3c2-c2ccnc(NC3CCCC3)c2)cc1`, 0.37 µM.

System in another data set: not listed separately
As to the kind of experiment: Cytotoxicity against Vero SC16 cells. Format: cell-based. The settings on record: chlorocebus sabaeus.
A word on the CC50: it is the concentration that lowers cell viability or growth by half. Read a high CC50 as better tolerance by the cells. The molecule `NNc1cc(-c2c(-c3ccc(F)cc3)nn3c(NC4CCCC4)cccc23)ccn1` yielded a CC50 of 40 µM. Turning to `Fc1ccc(-c2nn3c(NC4CCCC4)cccc3c2-c2c[nH]c(NC3CCCC3)n2)cc1`, half-maximal cytotoxicity (CC50) was put at 40 µM. This counts as double-digit micromolar. The molecule `Nc1n[nH]cc1-c1c(-c2ccc(F)cc2)nn2c(NC3CCCC3)cccc12` yielded a CC50 of 20 µM.

Molecule `Fc1ccc(-c2nn3c(NC4CCCC4)cccc3c2-c2ccc3[nH]ccc3c2)cc1` yielded a CC50 of 20 µM.

For the molecule `Fc1ccc(-c2nn3c(NC4CCCC4)cccc3c2-c2cc(NC3CCCC3)ncn2)cc1`, the CC50 was more than 40 µM. Same read-out and setting: for `Fc1ccc(-c2nn3c(NC4CCCC4)cccc3c2-c2cccnc2)cc1` the value was more than 40 µM; for `Fc1ccc(-c2nn3c(NC4CCCC4)cccc3c2-c2ccnc(NC3CCCC3)n2)cc1`, more than 160 µM; for `Fc1ccc(-c2nn3c(NC4CCCC4)cccc3c2-c2cn[nH]c2)cc1`, 10 µM. The same measure, in the same setting: the result for `Fc1ccc(-c2nn3c(NC4CCCC4)cccc3c2-c2cc[nH]n2)cc1` reads 14 µM.

With `Nc1nccc(-c2c(-c3ccc(F)cc3)nn3c(NC4CCCC4)cccc23)n1`, the CC50 worked out at 46 µM. The same measure, in the same setting: for `Fc1ccc(-c2nn3c(NC4CCCC4)cccc3c2-c2ccnc(NC3CCCC3)c2)cc1` the value was more than 40 µM.

System in a further data set: not listed separately
Briefly: Therapeutic index, ratio of CC50 for Vero SC16 cells to EC50 for HSV1. Format: cell-based. The settings on record: monkey, read-out: Ratio CC50/EC50.
On to `NNc1cc(-c2c(-c3ccc(F)cc3)nn3c(NC4CCCC4)cccc23)ccn1`, for which the selectivity ratio turned out to be 7. The same measure, in the same setting: the result for `Fc1ccc(-c2nn3c(NC4CCCC4)cccc3c2-c2c[nH]c(NC3CCCC3)n2)cc1` reads 5. Still for that read-out and setting: for `Nc1n[nH]cc1-c1c(-c2ccc(F)cc2)nn2c(NC3CCCC3)cccc12` the value was 4. On the same count and under the same terms, the result for `Fc1ccc(-c2nn3c(NC4CCCC4)cccc3c2-c2ccc3[nH]ccc3c2)cc1` reads 5.

On to `Fc1ccc(-c2nn3c(NC4CCCC4)cccc3c2-c2cc(NC3CCCC3)ncn2)cc1`, for which the selectivity ratio is more than 46.

On to `Fc1ccc(-c2nn3c(NC4CCCC4)cccc3c2-c2cccnc2)cc1`, for which the selectivity ratio was more than 11. Turning to `Fc1ccc(-c2nn3c(NC4CCCC4)cccc3c2-c2ccnc(NC3CCCC3)n2)cc1`, the selectivity ratio was more than 615. Same read-out and setting: the result for `Fc1ccc(-c2nn3c(NC4CCCC4)cccc3c2-c2cn[nH]c2)cc1` reads 2; that for `Fc1ccc(-c2nn3c(NC4CCCC4)cccc3c2-c2cc[nH]n2)cc1`, 6. Same read-out and setting: the result for `Nc1nccc(-c2c(-c3ccc(F)cc3)nn3c(NC4CCCC4)cccc23)n1` reads 11.

`Fc1ccc(-c2nn3c(NC4CCCC4)cccc3c2-c2ccnc(NC3CCCC3)c2)cc1`: the selectivity ratio was more than 108.
